Measurements from publication PMC7083565, “In vitro metabolism, reaction phenotyping, enzyme kinetics, CYP inhibition and induction potential of ataluren” (Pharmacology Research & Perspectives, 2020).

Target: T1, UGT1A7 (Homo sapiens, UniProt Q9HAW7)
T1 construct: purchased BD Biosciences; host or cells: baculovirus-infected insect cells
T1 sequence (Q9HAW7 26-530): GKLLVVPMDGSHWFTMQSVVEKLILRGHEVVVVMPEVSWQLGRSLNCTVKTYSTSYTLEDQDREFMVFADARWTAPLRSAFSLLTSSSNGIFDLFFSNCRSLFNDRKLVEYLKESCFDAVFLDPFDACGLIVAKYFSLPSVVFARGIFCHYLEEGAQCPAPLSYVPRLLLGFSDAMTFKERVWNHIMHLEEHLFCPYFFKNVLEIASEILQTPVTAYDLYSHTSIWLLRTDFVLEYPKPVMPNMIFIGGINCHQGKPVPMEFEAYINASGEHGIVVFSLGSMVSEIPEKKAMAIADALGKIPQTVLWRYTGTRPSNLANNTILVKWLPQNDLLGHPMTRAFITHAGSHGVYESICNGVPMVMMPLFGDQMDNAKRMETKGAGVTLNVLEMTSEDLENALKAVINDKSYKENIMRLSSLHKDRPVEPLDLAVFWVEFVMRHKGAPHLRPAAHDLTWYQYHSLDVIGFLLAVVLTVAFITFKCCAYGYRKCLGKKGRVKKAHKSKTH
Assay: Reaction phenotyping with recombinant human UGT enzymes: UGT1A7
Format: in vitro ADME
Details: rUGT1A7 0.25 mg protein/mL, 10 μmol/L, 60 minutes, n = 2
Description: Ataluren at 10 μmol/L, was incubated (n = 2) with recombinant human uridine diphosphate glucuronosyltransferase (rUGT) enzymes: rUGTs 1A1, 1A3, 1A4, 1A6, 1A7, 1A8, 1A9, 1A10, 2B4, 2B7, 2B15, and 2B17 at 0.25 mg protein/mL. Incubations were conducted in duplicate at 37°C. The incubation mixture (0.2 mL, final volume with 1% methanol) consisted of Tris‐HCl buffer (100 mmol/L, pH 7.7 at 37°C), MgCl2 (10 mmol/L), EDTA (1 mmol/L), saccharic acid 1,4‐lactone (0.1 mmol/L), and UDPGA (8 mmol/L). […] Samples were subjected to centrifugation (920 g for 10 minutes at 10°C) and the supernatant fractions were analyzed by LC‐MS/MS to quantify the formation of ataluren‐O‐1β‐acyl glucuronide and loss of ataluren. […] The ataluren acyl glucuronide formation rate after 60 minutes incubation was calculated using the amount of metabolite formed (pmol) divided by the protein amount in the incubation sample (0.05 mg) and the incubation time (60 minutes).
Quantification of ataluren loss and ataluren‐O‐1β‐acyl glucuronide formation was carried out with an LC‐MS/MS system, which consisted of two Shimadzu LC‐10ADvp pumps, a SPD10‐AVP UV/Vis detector, a Shimadzu SILHTA autosampler, a Shimadzu DGU‐14A degasser, and a Sciex API 4000 QTRAP mass spectrometer equipped with a Turbo Ionspray ionization source that operated in positive ionization mode. […]

Structure (SMILES): O=C(O)c1cccc(-c2noc(-c3ccccc3F)n2)c1 [ataluren, Ataluren]
- ataluren loss: 6.2%
